Laboratory results published in EP0925782A2, “Cosmetics” (SOGO PHARMACEUTICAL COMPANY LIMITED, priority 1997, dated 1999).
Structures can show the parent of a compound that is named as a salt.

How the values were obtained:
[1] = Test for a moisturizability (weight change after standing at constant temperature and humidity); type: physicochemical; details: dried sample, 20°C, humidity 75% for 7 days, then 20°C, humidity 45% for 7 days, evaluated from change in weight
Method: Approximately one gram of a sample was taken in a weighing bottle, and dried with diphosphorus pentoxide under reduced pressure for 4 hours. The resulting sample was used in the following test. The weight was accurately measured, and the sample was allowed to stand in a constant temperature and constant humidity box having a temperature of 20°C and a humidity of 75% for 7 days. Subsequently, the sample was moved in a constant temperature and constant humidity box having a temperature of 20°C and a humidity of 45%, and allowed to stand for 7 days. The moisturizability was evaluated from the change in weight. As a control sample, glycerin was used. […]

rat = details: p. o.; cited from earlier work

| Compound | Water holding capacity (%) [1] [%] | Water holding capacity (%) ([1]; sodium salt) | LD50 (rat) [mg/kg] |
| --- | --- | --- | --- |
| OCC(O)CO [Glycerin, glycerin, reference compound] | 19.88 |  |  |
| N[C@@H](CCC(=O)NCCS(=O)(=O)O)C(=O)O [Glutaurine sodium salt, glutaurine sodium salt] |  | 19.45 |  |
| N[C@@H](CCC(=O)NCCS(=O)(=O)O)C(=O)O [Glutaurine, glutaurine] | 17.12 |  | > 1000 |
